Drawing on PubChem BioAssay AID296 (DTP/NCI, 2004), this text covers T/C for 17 compounds.

Each structure is given as a SMILES string. Where “and” joins values, the source holds several entries; their conditions need not be identical. Equal values may be shown once. Results filed as inconclusive are left out.

The subject of the assay is MX-1 breast xenograft, nude mice, tumor weight T/C. As to the kind of experiment: NCI In Vivo Anticancer Drug Screen. Data for tumor model Human Mammary Carcinoma MX-1 Xenograft (intrarenal inoculation) in NU/NU Swiss (nude) mice. Particulars: endpoint: mean tumor weight change, higher = larger tumour. In a few lines:
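Antitumour effect measured in vivo against vehicle controls, expressed as T/C.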

[1] abbreviates: dose: 300.0 mg/kg/injection, schedule: Q04DX003 (sc), vehicle: saline with Tween-80.
[2] abbreviates: dose: 600.0 mg/kg/injection, schedule: Q04DX003 (sc), vehicle: saline with Tween-80.
[3] abbreviates: dose: 1200.0 mg/kg/injection, schedule: Q04DX003 (sc), vehicle: saline with Tween-80.
The mark [4] stands for this setting: dose: 2400.0 mg/kg/injection, schedule: Q04DX003 (sc), vehicle: saline with Tween-80.
The mark [5] stands for this setting: dose: 100.0 mg/kg/injection, schedule: Q01DX010 (sc), vehicle: Klucel (hydroxypropylcellulose) (HPC).

With `C=C(NC(=O)C(=C)NC(=O)c1csc(C2=NC3c4csc(n4)C4NC(=O)c5csc(n5)C(C(C)(O)C(C)O)NC(=O)C5CSC(=N5)/C(=C/C)NC(=O)C(C(C)O)NC(=O)c5csc(n5)C3(CC2)NC(=O)C(C)NC(=O)C(=C)NC(=O)C(=C)NC(=O)C(C(C)C)NC2C=Cc3c(C(C)O)cc(nc3C2O)C(=O)OC4C)n1)C(N)=O` (stereo not drawn), the T/C runs as follows: (dose: 187.5 mg/kg/injection, schedule: Q04DX003 (sc), vehicle: suspension in saline) 123 % of control; (dose: 375.0 mg/kg/injection, schedule: Q04DX003 (sc), vehicle: suspension in saline) 98 % of control; (dose: 750.0 mg/kg/injection, schedule: Q04DX003 (sc), vehicle: suspension in saline) 105 % of control; (dose: 1500.0 mg/kg/injection, schedule: Q04DX003 (sc), vehicle: suspension in saline) 152 % of control.

Consider `COc1ccc(C[C@H](N)C(=O)NC2C(CO)OC(n3cnc4c(N(C)C)ncnc43)C2O)cc1` (stereo partly drawn), for which the T/C reads like this: (dose: 100.0 mg/kg/injection, schedule: Q04DX003 (sc), vehicle: saline) 102 % of control; (dose: 200.0 mg/kg/injection, schedule: Q04DX003 (sc), vehicle: saline) 99 % of control.

For `O.O.[NH-]C1CCCCC1[NH-].[Pt+2]` (stereo not drawn), the T/C was 111 % of control (dose: 2.5 mg/kg/injection, schedule: Q01DX010 (sc), vehicle: dextrose); 76 % of control and 78 % of control (dose: 5.0 mg/kg/injection, schedule: Q01DX010 (sc), vehicle: dextrose); 55 % of control and 60 % of control (dose: 10.0 mg/kg/injection, schedule: Q01DX010 (sc), vehicle: dextrose); 26 % of control and 36 % of control (dose: 20.0 mg/kg/injection, schedule: Q01DX010 (sc), vehicle: dextrose).

Take `CCCCCC#CC1OC12CCCCC2` (stereo not drawn): the T/C under setting [1] is 83 % of control, the T/C under setting [2] was 101 % of control, the T/C under setting [3] was 83 % of control and the T/C under setting [4] is 78 % of control.

Turning to `CCCCCCCC(=O)[O][Hg][CH2]C1COC([CH2][Hg][O]C(=O)CCCCCCC)CO1` (stereo not drawn), the T/C is 58 % of control under setting [1], 70 % of control under setting [2], 50 % of control under setting [3] and 36 % of control under setting [4].

For the compound `O=c1ncccn1[C@@H]1O[C@H](CO)[C@H](O)C1O` (stereo partly drawn), the T/C (dose: 150.0 mg/kg/injection, schedule: Q04DX003 (sc), vehicle: saline) is 114 % of control; the T/C (dose: 300.0 mg/kg/injection, schedule: Q04DX003 (sc), vehicle: saline) was 156 % of control; the T/C (dose: 600.0 mg/kg/injection, schedule: Q04DX003 (sc), vehicle: saline) is 160 % of control; the T/C (dose: 1200.0 mg/kg/injection, schedule: Q04DX003 (sc), vehicle: saline) was 108 % of control.

On to `CCOc1ccc(-c2nc3ccc(-c4nc5ccc(N6CCN(C)CC6)cc5[nH]4)cc3[nH]2)cc1`, for which the T/C (dose: 25.0 mg/kg/injection, schedule: Q04DX003 (ip), vehicle: saline) is 96 % of control.

With `O=c1ssc(=Nc2ccccc2)n1-c1ccccc1`, the T/C by setting is: (dose: 300.0 mg/kg/injection, schedule: Q04DX003 (sc), vehicle: Klucel (hydroxypropylcellulose) (HPC)) 65 % of control; (dose: 600.0 mg/kg/injection, schedule: Q04DX003 (sc), vehicle: Klucel (hydroxypropylcellulose) (HPC)) 95 % of control; (dose: 1200.0 mg/kg/injection, schedule: Q04DX003 (sc), vehicle: Klucel (hydroxypropylcellulose) (HPC)) 112 % of control; (dose: 2400.0 mg/kg/injection, schedule: Q04DX003 (sc), vehicle: Klucel (hydroxypropylcellulose) (HPC)) 106 % of control.

With `Cc1ccc(NCC2(/N=C/c3ccccc3)OC(CO)C(O)C2O)cc1` (stereo not drawn), the T/C (dose: 200.0 mg/kg/injection, schedule: Q04DX003 (sc), vehicle: Klucel (hydroxypropylcellulose) (HPC)) was 109 % of control; the T/C (dose: 400.0 mg/kg/injection, schedule: Q04DX003 (sc), vehicle: Klucel (hydroxypropylcellulose) (HPC)) is 124 % of control; the T/C (dose: 800.0 mg/kg/injection, schedule: Q04DX003 (sc), vehicle: Klucel (hydroxypropylcellulose) (HPC)) is 94 % of control; the T/C (dose: 1600.0 mg/kg/injection, schedule: Q04DX003 (sc), vehicle: Klucel (hydroxypropylcellulose) (HPC)) was 101 % of control.

For `Cc1cc(NCCCN(C)C)c2ccc3c(ccc4c(NCCCN(C)C)cc(C)nc43)c2n1`, the T/C by setting is: (dose: 9.38 mg/kg/injection, schedule: Q04DX003 (sc), vehicle: saline with Tween-80) 77 % of control; (dose: 18.75 mg/kg/injection, schedule: Q04DX003 (sc), vehicle: saline with Tween-80) 65 % of control.

In the case of `CC(C)=CC(=O)OC1C2C(C)=CC(=O)C(O)C2(C)C2C3(O)OCC24C(CC(=O)OC14)C(C)C3O` (stereo not drawn), the T/C was 41 % of control (dose: 1.25 mg/kg/injection, schedule: Q04DX003 (sc), vehicle: distilled water + Tween-80); 82 % of control (dose: 2.5 mg/kg/injection, schedule: Q04DX003 (sc), vehicle: distilled water + Tween-80); 71 % of control (dose: 5.0 mg/kg/injection, schedule: Q04DX003 (sc), vehicle: distilled water + Tween-80); 88 % of control (dose: 10.0 mg/kg/injection, schedule: Q04DX003 (sc), vehicle: distilled water + Tween-80).

On to `COc1cccc2c1C(=O)c1c(O)c3c(c(O)c1C2=O)CC(O)(C(=O)CO)CC3OC1CC(N)C(O)C(C)O1` (stereo not drawn), for which the T/C is, setting by setting: (dose: 12.0 mg/kg/injection, schedule: Q01DX010 (sc), vehicle: saline) 90 % of control; (dose: 24.0 mg/kg/injection, schedule: Q01DX010 (sc), vehicle: saline) 80 % of control; (dose: 25.0 mg/kg/injection, schedule: Q01DX010 (sc), vehicle: saline) 78 % of control; (dose: 37.5 mg/kg/injection, schedule: Q01DX010 (sc), vehicle: water) 281 % of control; (dose: 48.0 mg/kg/injection, schedule: Q01DX010 (sc), vehicle: saline) 9 % of control; (dose: 50.0 mg/kg/injection, schedule: Q01DX010 (sc), vehicle: saline) 22 % of control. The T/C reads like this: (dose: 75.0 mg/kg/injection, schedule: Q01DX010 (sc), vehicle: water) 229 % of control; (dose: 96.0 mg/kg/injection, schedule: Q01DX010 (sc), vehicle: saline) 4 % of control; (dose: 150.0 mg/kg/injection, schedule: Q01DX010 (sc), vehicle: water) 233 % of control; (dose: 300.0 mg/kg/injection, schedule: Q01DX010 (sc), vehicle: water) 81 % of control.

Consider `C[C@]12C=CC(=O)C=C1CC[C@@H]1[C@@H]2[C@@H](O)C[C@@]2(C)[C@H]1CC[C@]2(O)C(=O)CO`, for which the T/C is 50 % of control (dose: 12.5 mg/kg/injection, schedule: Q01DX010 (sc), vehicle: Klucel (hydroxypropylcellulose) (HPC)); 67 % of control (dose: 25.0 mg/kg/injection, schedule: Q01DX010 (sc), vehicle: Klucel (hydroxypropylcellulose) (HPC)); 55 % of control (dose: 50.0 mg/kg/injection, schedule: Q01DX010 (sc), vehicle: Klucel (hydroxypropylcellulose) (HPC)); 24 % of control under setting [5].

Regarding `CNc1nc(NC)nc(NC)n1`, the T/C (dose: 25.0 mg/kg/injection, schedule: Q01DX010 (ip), vehicle: Klucel (hydroxypropylcellulose) (HPC)) is 164 % of control; the T/C (dose: 100.0 mg/kg/injection, schedule: Q01DX010 (ip), vehicle: Klucel (hydroxypropylcellulose) (HPC)) was 61 % of control; the T/C under setting [5] is 93 % of control; the T/C (dose: 200.0 mg/kg/injection, schedule: Q01DX010 (ip), vehicle: Klucel (hydroxypropylcellulose) (HPC)) is 40 % of control.

As for `O=C(O)CCCc1ccc(N(CCCl)CCCl)cc1`, the T/C (dose: 4.0 mg/kg/injection, schedule: Q01DX010 (sc), vehicle: saline with Tween-80) was -6 % of control and the T/C (dose: 16.0 mg/kg/injection, schedule: Q01DX010 (sc), vehicle: saline with Tween-80) is -65 % of control.

Turning to `Cc1ccc(S(=O)(=O)NC(=S)S)cc1`, the T/C was 98 % of control (dose: 200.0 mg/kg/injection, schedule: Q01DX010 (sc), vehicle: saline with Tween-80) and 93 % of control (dose: 400.0 mg/kg/injection, schedule: Q01DX010 (sc), vehicle: saline with Tween-80).

Consider `C1CC[N-]CC1.[Cl][Pt+2][Cl].[NH-]C1CC1`, for which the T/C (dose: 25.0 mg/kg/injection, schedule: Q04DX003 (sc), vehicle: water) is 60 % of control; the T/C (dose: 50.0 mg/kg/injection, schedule: Q04DX003 (sc), vehicle: Klucel (hydroxypropylcellulose) (HPC)) is 34 % of control and 55 % of control; the T/C (dose: 50.0 mg/kg/injection, schedule: Q04DX003 (sc), vehicle: water) was 11 % of control; the T/C (dose: 100.0 mg/kg/injection, schedule: Q04DX003 (sc), vehicle: water) was -83 % of control.
